Activity calls are given as the source filed them.
Columns and labels:
Type in all cases: functional, organism-based
Musca domestica = test: Insecticidal activity against Musca domestica (house fly)
Blatta orientalis = test: Insecticidal activity against Blatta orientalis
Tetranychus urticae = test: Insecticidal activity against Tetranychus urticae (two-spotted spider mite)
Sitophilus granarius = test: Insecticidal activity against Sitophilus granarius (granary weevil)

Measured: Activity

CCOC(=C(Br)Br)c1ccc(Cl)cc1Cl
inactive: all assays above

CCOC(=CBr)c1ccc(Cl)cc1Cl (mixture of isomers)
inactive: all assays above
